Test results from patent publication US6258800A, “Prodrugs of benzofuranylethyl carbamate NK1 antagonists” (Warner-Lambert Company, priority 2000, dated 2001).
Counter-ions that a name gives are not always drawn.

Columns and labels:
[1] = Aqueous solubility; format: physicochemical; conditions: water
[2] = Conversion of prodrug to parent compound 1 after IV dosing (plasma HPLC); format: in vivo; conditions: male Wistar rats; for metabolised at 24 h: rat, n=3, slow IV bolus about 5 mg/kg parent-equivalent, parent compound 1 in plasma up to 24 h; for conversion to parent compound 1 in vivo (in words): IV administration
Excerpt: Male Wistar rats weighing 244 to 390 g were used in the in vivo experiments. The day before the experiment, the rats were surgically prepared. Rats were anesthetized with ether, and the right jugular vein was cannulated for intravenous dosing and/or systemic sampling. The cannula was exteriorized at the nape of the rat between the shoulder blades. The animals were allowed to recover overnight from surgery and fasted with water ad libitum.
Dosing solutions of the prodrugs (5, 25, 18, 34, 20c, 20d, 20e, and 20f) were prepared separately in 5% dextrose in water (D5W). Compound 20a was dissolved in 5% ethanol in D5W whereas compound 29 was dissolved in 20% ethanol, 20% polyethylene glycol 400 in D5W. Animals were randomly assigned to groups of three. The prodrug solutions were administered intravenously as a slow bolus at about 5 mg/kg parent-equivalent or orally as a gastric gavage at about 15 mg/kg parent-equivalent (Table 1 on Page 10 contains PO data). The cannula was subsequently rinsed with 1 mL D5W. Systemic blood was sampled predose and at selected times up to 24 hours after dosing. Blood samples (0.5 mL) were collected on ice, heparinized, and immediately centrifuged; then plasma was harvested and stored at -20° C. until analysis by HPLC.
The plasma samples were analyzed by validated HPLC assay for the parent compound 1. Plasma (200 μL) was spiked with 18 μL of internal standard ([2-(1H-indol-3-yl)-1-methyl-1-(1-phenyl-ethylcarbamoyl)-ethyl]-carbimic acid 4-ethyl-benzyl ester; 2.5 μM) and 400 μL acetonitrile (ACN) to precipitate protein. The supernatant was transferred to a clean test tube and evaporated to dryness. The residue was reconstituted in 50:50 ACN:water and injected onto the HPLC.
Detailed bioconversion data often prodrugs is found in Table 1 below.

Row | SMILES | solubility ([1]; parent drug) [µg/mL] | metabolised at 24 h [2] [%] | conversion to parent compound 1 in vivo (in words) [2] | aqueous solubility (in words) [1] | metabolised at 24 h ([2]; in vivo) [%]
1 | C[C@H](NC(=O)[C@@](C)(Cc1c[nH]c2ccccc12)NC(=O)OCc1cc2ccccc2o1)c1ccccc1 [Compound 1, 2-benzofuranylmethyl [R-(R*,S*)]-[1-(1H-indol-3-ylmethyl)-1-methyl-2-oxo-2-[(1-phenylethyl)amino]ethyl]carbamate, reference compound] | < 1 |  |  |  | 
2 | C[C@H](NC(=O)[C@@](C)(Cc1cn(P(=O)(O)O)c2ccccc12)NC(=O)OCc1cc2ccccc2o1)c1ccccc1 [Compound 5, {3-[2-(Benzofuran-2-ylmethoxycarbonylamino)-2-(1-phenyl-ethylcarbamoyl)propyl]-indol-1-yl}-phosphonic acid disodium salt] |  | 11.7 ± 0.84 |  |  | 
3 | C[C@H](NC(=O)[C@@](C)(Cc1cn(C(=O)OCOC(=O)c2ccc(COP(=O)(O)O)cc2)c2ccccc12)NC(=O)OCc1cc2ccccc2o1)c1ccccc1 [Compound 18, 3-[2-(Benzofuran-2-ylmethoxycarbonylamino)-2-(1-phenyl-ethylcarbamoyl)propyl]-indol-1-carboxylic acid phosphonooxymethylbenzoyloxymethyl ester disodium salt] |  | 59.5 ± 21.3 | highest reconversion |  | 
4 | C[C@H](NC(=O)[C@@](C)(Cc1cn(C(=O)OCOC(=O)c2ccc(CN(C)C)cc2)c2ccccc12)NC(=O)OCc1cc2ccccc2o1)c1ccccc1 [Compound 20a, 3-[2-(Benzofuran-2-ylmethoxycarbonylamino)-2-(1-phenyl-ethylcarbamoyl)-propyl]-indole-1-carboxylic acid 4-dimethylaminomethyl-benzoyloxymethyl ester monohydrochloride salt] |  | 86.9 ± 18.6 | higher conversion than the phosphate prodrugs | not water-soluble | 
5 | C[C@H](NC(=O)[C@@](C)(Cc1cn(C(=O)c2ccccc2COP(=O)(O)O)c2ccccc12)NC(=O)OCc1cc2ccccc2o1)c1ccccc1 [Compound 25, {1-Methyl-1-(1-phenyl-ethylcarbamoyl)-2-[1-(2-phosphonooxymethyl-benzoyl)-1H-indol-3-yl]-ethyl}-carbamic acid benzofuran-2-ylmethyl ester disodium salt] |  | 19.9 ± 1.07 |  |  | 
6 | Cc1cc(C)c(C(C)(C)CC(=O)n2cc(C[C@@](C)(NC(=O)OCc3cc4ccccc4o3)C(=O)N[C@@H](C)c3ccccc3)c3ccccc32)c(OP(=O)(O)O)c1 [Compound 34, [2-{1-[3-(2,4-Dimethyl-6-phosphonooxy-phenyl)-3-methylbutyryl]-1H-indol-3-yl}-1-methyl-1-(1-phenylethylcarbamoyl)ethyl]carbamic acid benzofuran-2-ylmethyl ester disodium salt] |  |  | lowest bioconversion in vivo |  | 9.35 ± 4.12

Now from value to compound, other results behind:

Row | solubility ([1]; parent drug) [µg/mL] | metabolised at 24 h [2] [%] | conversion to parent compound 1 in vivo (in words) [2] | aqueous solubility (in words) [1] | SMILES | metabolised at 24 h ([2]; in vivo) [%]
7 |  | 68 ± 5.2 | comparable reconversion as (20a) |  | C[C@H](NC(=O)[C@@](C)(Cc1cn(C(=O)OCOC(=O)c2ccc(CN3CCN(C)CC3)cc2)c2ccccc12)NC(=O)OCc1cc2ccccc2o1)c1ccccc1 [Compound 20c, 3-[2-(Benzofuran-2-ylmethoxycarbonylamino)-2-(1-phenyl-ethylcarbamoyl)-propyl]-indole-1-carboxylic acid 4-(4-methyl-piperazin-1-methyl)-benzoyloxymethyl ester dihydrochloride salt] | 
8 |  | 64.2 ± 14.3 | comparable reconversion as (20a) |  | C[C@H](NC(=O)[C@@](C)(Cc1cn(C(=O)OCOC(=O)c2ccc(CN3CCN(CCO)CC3)cc2)c2ccccc12)NC(=O)OCc1cc2ccccc2o1)c1ccccc1 [Compound 20d, 3-[2-(Benzofuran-2-ylmethoxycarbonylamino)-2-(1-phenyl-ethylcarbamoyl)-propyl]-indole-1-carboxylic acid 4-[4-(2-hydroxy-ethyl)-piperazin-1-ylmethyl]-benzoyloxymethyl ester dihydrochloride salt] | 
9 |  | 88.5 ± 9.2 | comparable reconversion as (20a) |  | C[C@H](NC(=O)[C@@](C)(Cc1cn(C(=O)OCOC(=O)c2ccc(CN3CCNCC3)cc2)c2ccccc12)NC(=O)OCc1cc2ccccc2o1)c1ccccc1 [Compound 20e, 3-[2-(Benzofuran-2-ylmethoxycarbonylamino)-2-(1-phenyl-ethylcarbamoyl)-propyl]-indole-1-carboxylic acid 4-piperazin-1-ylmethyl-benzoyloxymethyl ester dihydrochloride salt] | 
10 |  | 104 ± 38.2 | comparable reconversion as (20a) |  | C[C@H](NC(=O)[C@@](C)(Cc1cn(C(=O)OCOC(=O)c2ccc(CN(C)CCN(C)C)cc2)c2ccccc12)NC(=O)OCc1cc2ccccc2o1)c1ccccc1 [Compound 20f, 3-[2-(Benzofuran-2-ylmethoxycarbonylamino)-2-(1-phenyl-ethylcarbamoyl)-propyl]-indole-1-carboxylic acid 4-{[(2-dimethylamino-ethyl)-methyl-amino]-methyl}-benzoyloxymethyl ester dihydrochloride salt] | 
